Results taken from patent publication US11045509B2, “Tributyrin compositions and methods therefor” (Compound Solutions, Inc., priority 2019, dated 2021).

Columns and labels:
Type in all cases: in vivo, human
[1] = test system: Faecalibacterium; assay: relative abundance of Faecalibacterium in stool before and after 3-week tributyrin study (16S rRNA); details: three volunteers, 300 mg tributyrin per day for 3 weeks, stool sample POST vs PRE, FIG. 2
Source text: (§1) The inventors recruited three volunteers who were asked to provide some basic anthropometric characteristics and lifestyle habits. All volunteer subjects (2 female and 1 male) were free of chronic disease and reported not having taken an antibiotic within the past six months. Body mass index (kg/m^2) analysis classified two of the subjects as “overweight” (BMI>25<30), and one as obese (BMI>30). Although activity habits varied, all of the subjects reported weekly participation in light-to-moderate physical activity, and relatively low caffeine intake (<200 mg/day) and alcohol intake (<3 drinks a week). Before the start of the 3-week study, stool samples were collected from each of the 3 volunteers using the commercially available UBiome Explorer kit. The collected stool samples were sent to Ubiome labs (San Francisco, Calif.) where DNA was extracted followed by 16S rRNA gene amplification for bacterial classification. The 3-week study involved each of the volunteers taking 300 milligrams (mg) of tributyrin per day for 3 weeks. Subjects were verbally instructed to maintain usual dietary and physical activity habits throughout the course of the study. At the end of the 3-week period, stool samples were collected following the same protocol, and sent for analysis. […]

[2] = test system: Lachnospira; assay: relative abundance of Lachnospira in stool before and after 3-week tributyrin study (16S rRNA); details: three volunteers, 300 mg tributyrin per day for 3 weeks, stool sample POST vs PRE, FIG. 3
Source text: as §1

[3] = test system: Firmicutes to Bacteroidetes (F/B) ratio; assay: collective Firmicutes to Bacteroidetes (F/B) ratio in stool before and after 3-week tributyrin study; details: three volunteers, 300 mg tributyrin per day for 3 weeks, stool samples POST vs PRE, FIG. 4
Protocol: With reference to FIG. 4, the collective ratio of firmicutes to bacteroidetes (F/B ratio) was measured in the stool samples of the three volunteer subjects before and after taking tributyrin daily for three weeks as described in the Examples. The firmicutes and bacteroidetes are each a phylum of bacteria making up the largest portion of the human gut microbiome. In particular the F/B ratio has been reported to be associated with metabolic factors and cardiorespiratory fitness. Durk et al., 2018, Int J Sport Nutr Exerc Metab, 29, 249-253. Accordingly, the inventors contemplate a method of increasing the F/B ratio in the gut of a mammal with the administration of a tributyrin-containing composition to the mammal at a dosage that effectively increases the F/B ratio in the gut of the mammal. […] As such, contemplated compositions are thought to not only selectively improve gut microflora, but also to enhance nutrient uptake. The inventors recruited three volunteers who were asked to provide some basic anthropometric characteristics and lifestyle habits. All volunteer subjects (2 female and 1 male) were free of chronic disease and reported not having taken an antibiotic within the past six months. Body mass index (kg/m^2) analysis classified two of the subjects as “overweight” (BMI>25<30), and one as obese (BMI>30). […]

[4] = test system: Bifidobacterium; assay: relative abundance of Bifidobacterium in stool before and after 3-week tributyrin study (16S rRNA); details: three volunteers, 300 mg tributyrin per day for 3 weeks, stool sample POST vs PRE, FIG. 1
Source text: as §1

Question: What does the source list for CCCC(=O)OCC(COC(=O)CCC)OC(=O)CCC [tributyrin]?
Answer: increase in relative abundance of Faecalibacterium [1]: 29%; increase in relative abundance of Lachnospira [2]: 114%; increase of collective F/B ratio [3]: approximately 50%; increase in relative abundance of Bifidobacterium [4]: 8,841%
